In brackets after ≈: the same amount, converted by molar mass. Like-named read-outs stand apart in the source and are kept apart here.
How the values were obtained:
[1] = system: Porphyromonas gingivalis; assay: Minimum inhibitory concentration, oral cavity strains; type: cell-based; details: read-out: MIC Porphyromonas gingivalis
From the text: (§1) The differential inhibition of microorganisms was also investigated with strains that typically are found in the oral cavity and that are related to oral diseases like gingivitis or caries. The cooling compounds show a better efficacy against Streptococcus mutans, Streptococcus salivarius, Porphyromonas gingivalis and Fusobacterium nucleatum in comparison to Escherichia coli.

[2] = system: Streptococcus salivarius; assay: as above; type: cell-based; details: Example 2 table (oral care)
From the text: as §1

[3] = system: Streptococcus mutans; assay: as above; type: cell-based; details: read-out: MIC Streptococcus mutans
From the text: as §1

[4] = system: Fusobacterium nucleatum; assay: as above; type: cell-based; details: read-out: MIC Fusobacterium nucleatum
From the text: as §1

[5] = system: Escherichia coli; assay: Minimum inhibitory concentration, pure culture; type: cell-based; details: for MIC: Escherichia coli, read-out: MIC Escherichia coli; for MIC Escherichia coli: Example 2 table (oral care)
From the text: (§2) Antimicrobial activity was also investigated with pure cultures for three different cooling compounds. The results of Triclosan, a well-known antimicrobial, are shown for comparison. (Table 7):
as §1

[6] = system: Anaerococcus octavius; assay: Minimum inhibitory concentration, pure culture; type: cell-based
From the text: as §2
It should be emphasized that Anaerococcus octavius represents the category of anaerobic odour causing bacteria. As a matter of fact, it is very hard to find antimicrobial materials which are active against these germs.

[7] = system: Candida albicans; assay: Minimum inhibitory concentration, pure culture; type: cell-based
From the text: (§3) Antimicrobial activity was also investigated with pure cultures for three different cooling compounds. The results of Triclosan, a well-known antimicrobial, are shown for comparison.

[8] = system: Staphylococcus epidermidis; assay: Minimum inhibitory concentration, pure culture; type: cell-based
From the text: as §3

[9] = system: Staphylococcus hominis; assay: Minimum inhibitory concentration, pure culture; type: cell-based
From the text: as §3

[10] = system: Corynebacterium xerosis; assay: Minimum inhibitory concentration, pure culture; type: cell-based
From the text: as §3

[11] = system: Staphylococcus aureus; assay: Minimum inhibitory concentration, pure culture; type: cell-based
From the text: as §3

[12] = system: axillary microbiome in human axillary sweat; assay: Axillary microbiome ex vivo model: microbiome composition; type: cell-based
From the text: (§4) The formation of sweat odour was investigated in an axillary microbiome ex vivo model that is based on human axillary sweat. […] This includes accumulation of volatile organic acids related to sweat odour (measured with GC-MS) and conversion of non-odorous precursor molecules to the respective odorous product (measured with HPLC) going along with the development of the typical sweat odour (assessed by a sensory panel).
(§5) The resulting sweat odour is the result of microbial activity. Those microorganisms that can metabolize the nutrients contained in the sweat can also increase their cell number. Untreated sweat starts with a cell number of about 10^7 cells/ml. These numbers increase by a magnitude during incubation, both for aerobic as well as anaerobic cell count. […] Anaerobic genera like Anaerococcus, Peptoniphilus, and Finegoldia are part of the natural axillary flora (Zeeuwen et al (2012), Troccaz et al (2015)). As some of their assigned species are known to be odour causing (Fuji 2014), the limitation of their increase is of high importance for the management of the typical sweat odor. […] Table 2 refers to change in microbiome composition.

[13] = system: conversion of non-odorous precursor molecules in human axillary sweat; assay: Axillary microbiome ex vivo model: HPLC-MS of non-odourous precursors and odorous products; type: cell-based
From the text: as §4

[14] = system: axillary microbiome in human axillary sweat; assay: Axillary microbiome ex vivo model: aerobic and anaerobic cell counts; type: cell-based
From the text: as §4, §5

[15] = system: sweat odour of human axillary sweat; assay: Axillary microbiome ex vivo model: sweat odour rating by sensory panel
From the text: as §4

[16] = system: volatile organic acids in human axillary sweat; assay: Axillary microbiome ex vivo model: volatile organic acids (GC-MS); type: cell-based
From the text: as §4

[17] = Table 7, read-out: MIC Anaerococcus octavius
[18] = Table 7, read-out: MIC Candida albicans
[19] = Table 7, read-out: MIC Staphylococcus epidermidis
[20] = Table 7, read-out: MIC Staphylococcus hominis
[21] = Table 7, read-out: MIC Corynebacterium xerosis
[22] = Table 7, read-out: MIC Staphylococcus aureus
[23] = 5,000 ppm, after 48 h incubation of fresh sweat

SMILES: CC(C)[C@@H]1CC[C@@H](C)CC12OCC(CO)O2 (mixture of isomers) [Frescolat ® MGA, Menthon Glyceryl Acetal]
- MIC ([1]; Example 2 table (oral care)): 250 µg/mL
- MIC [2]: 500 µg/mL
- MIC ([3]; Example 2 table (oral care)): 500 µg/mL
- MIC ([4]; Example 2 table (oral care)): 500 µg/mL
- MIC ([5]; Table 7): > 1 µg/mL
- MIC Escherichia coli [5]: >1.000 ppm
- MIC [6, 17]: 2.5 µg/mL
- MIC [7, 18]: > 1 µg/mL
- MIC [8, 19]: 500 µg/mL
- MIC [9, 20]: 500 µg/mL
- MIC [10, 21]: 500 µg/mL
- MIC [11, 22]: 1 µg/mL

SMILES: CC(O)C(=O)O[C@@H]1C[C@H](C)CC[C@H]1C(C)C (stereo in doubt) [Frescolat ® ML, Menthyl Lactate]
- MIC ([1]; Example 2 table (oral care)): 125 µg/mL
- MIC [2]: 500 µg/mL
- MIC ([3]; Example 2 table (oral care)): 125 µg/mL
- MIC ([4]; Example 2 table (oral care)): 250 µg/mL
- Abundance of anaerobic odour causing genera Anaerococcus, Finegoldia and Moraxella ([12]; 5000 ppm added to fresh sweat): inhibited in their abundance increase
- Relative abundance of Raoultella, Corynebacterium and Staphylococcus versus untreated ([12]; 5000 ppm added to fresh sweat): same relative abundance as in the untreated sample
- Relative abundance Anaerococcus ([12]; 5,000 ppm, after 48 h): 1.6%
- Relative abundance Below 0.1% ([12]; 5,000 ppm, after 48 h): 1.1%
- Relative abundance Citrobacter ([12]; 5,000 ppm, after 48 h): 11.7%
- Relative abundance Corynebacterium ([12]; 5,000 ppm, after 48 h): 2.8%
- Relative abundance Enterobacter ([12]; 5,000 ppm, after 48 h): 32.6%
- Relative abundance Finegoldia ([12]; 5,000 ppm, after 48 h): 0.2%
- Relative abundance Kluyvera ([12]; 5,000 ppm, after 48 h): 0.9%
- Relative abundance Moraxella ([12]; 5,000 ppm, after 48 h): 0.0%
- Relative abundance Propionibacterium ([12]; 5,000 ppm, after 48 h): 7.6%
- Relative abundance Raoultella ([12]; 5,000 ppm, after 48 h): 39.1%
- Relative abundance Staphylococcus ([12]; 5,000 ppm, after 48 h): 2.2%
- Relative abundance Streptococcus ([12]; 5,000 ppm, after 48 h): 0.1%
- Relative abundance Undefined ([12]; 5,000 ppm, after 48 h): 0.0%
- Formation of odorous products ([13]; 5000 ppm added to fresh sweat): drastically reduced formation
- Concentration of non-odourous pre-cursour N-α-3-hydroxy-3-methylhexanoyl-L-glutamine (HMHA-Gln) ([13]; 5000 ppm, 48 h): 102.24 ppm
- Concentration of non-odourous pre-cursour N-α-[(2E)-3-methyl-2-hexenoyl]-L-glutamine (3M2H-Gln) ([13]; 5000 ppm, 48 h): 10.42 ppm
- Concentration of odorous products, line N-α-3-hydroxy-3-methylhexanoyl-L-glutamine (HMHA-Gln) ([13]; 5000 ppm, 48 h): 0.43 ppm
- Concentration of odorous products, line N-α-[(2E)-3-methyl-2-hexenoyl]-L-glutamine (3M2H-Gln) ([13]; 5000 ppm, 48 h): 1.69 ppm
- MIC ([5]; Table 7): > 5 µg/mL
- MIC Escherichia coli [5]: >5.000 ppm
- Cell number development compared to untreated ([14]; 5000 ppm added to fresh sweat): slight reduction compared to untreated
- Aerobic cell count [14, 23]: 6.85E+07 cells/ml
- Anaerobic cell count [14, 23]: 1.08E+07 cells/ml
- Odour development in sensory analysis in comparison to untreated ([15]; 5000 ppm added to fresh sweat): clear reduction of odour development
- Odor rating (smell intensity), mean ([15]; 5000 ppm, 48 h, mean of 8 panelists): 2.4
- MIC [6, 17]: 500 µg/mL
- MIC [7, 18]: 1 µg/mL
- MIC [8, 19]: 500 µg/mL
- MIC [9, 20]: 250 µg/mL
- MIC [10, 21]: 250 µg/mL
- MIC [11, 22]: 250 µg/mL
- Formation of volatile organic acids ([16]; 5000 ppm added to fresh sweat): drastically reduced formation
- Concentration of 2-Methylbutyric Acid ([16]; 5000 ppm, 48 h): 0 ppm
- Concentration of Acetic Acid ([16]; 5000 ppm, 48 h): 11.1 ppm
- Concentration of Butyric Acid ([16]; 5000 ppm, 48 h): 0.3 ppm
- Concentration of Capric Acid ([16]; 5000 ppm, 48 h): 1.3 ppm
- Concentration of Capronic Acid ([16]; 5000 ppm, 48 h): 0.6 ppm
- Concentration of Caprylic Acid ([16]; 5000 ppm, 48 h): 1.5 ppm
- Concentration of Lauric Acid ([16]; 5000 ppm, 48 h): 1.7 ppm
- Concentration of Propanoic Acid ([16]; 5000 ppm, 48 h): 2.2 ppm
- Concentration of Valeric Acid ([16]; 5000 ppm, 48 h): 0 ppm

SMILES: Oc1cc(Cl)ccc1Oc1ccc(Cl)cc1Cl [Triclosan, reference compound]
- MIC [1]: 1 µg/mL (≈ 3.45 µM)
- MIC [3]: 8 µg/mL (≈ 27.6 µM)
- MIC [4]: 8 µg/mL (≈ 27.6 µM)
- MIC [5]: > 1 µg/mL
- MIC Escherichia coli [5]: >1 ppm
- MIC ([6]; read-out: MIC Anaerococcus octavius): > 500 µg/mL
- MIC ([7]; read-out: MIC Candida albicans): 16 µg/mL (≈ 55.3 µM)
- MIC ([8]; read-out: MIC Staphylococcus epidermidis): 4 µg/mL (≈ 13.8 µM)
- MIC ([9]; read-out: MIC Staphylococcus hominis): 4 µg/mL (≈ 13.8 µM)
- MIC ([10]; read-out: MIC Corynebacterium xerosis): 8 µg/mL (≈ 27.6 µM)
- MIC ([11]; read-out: MIC Staphylococcus aureus): 2 µg/mL (≈ 6.91 µM)

SMILES: CC(C)[C@@H]1CC[C@@H](C)C[C@H]1OC(=O)OCCO [Frescolat ® MGC, Menthol Ethylene Glycol Carbonate]
- MIC ([1]; Example 2 table (oral care)): 125 µg/mL (≈ 512 µM)
- MIC [2]: 500 µg/mL (≈ 2050 µM)
- MIC ([3]; Example 2 table (oral care)): 250 µg/mL (≈ 1020 µM)
- MIC ([4]; Example 2 table (oral care)): 16 µg/mL (≈ 65.5 µM)
- MIC ([5]; Table 7): > 1 µg/mL
- MIC Escherichia coli [5]: >1.000 ppm
- MIC [6, 17]: 1 µg/mL (≈ 4.09 µM)
- MIC [7, 18]: > 1 µg/mL
- MIC [9, 20]: 500 µg/mL (≈ 2050 µM)
- MIC [10, 21]: 500 µg/mL (≈ 2050 µM)
- MIC [11, 22]: 500 µg/mL (≈ 2050 µM)
